Measurements as given in ChEMBL document CHEMBL5335815, “The Greater Celandine: Identification and Characterization of an Antimicrobial Peptide from Chelidonium majus” (J Nat Prod, 2024).
Calls of active or inactive are those of the source. The rule behind the calls is not given here. Bridge positions count the residues as written; N and C are the ends. Peptide text beside a SMILES is read from it.

Key:
[1] = Proteolytic stability assessed as proteinase K (unknown origin) mediated compound degradation incubated for 10 mins by LC-MS analysis; format: ADME; settings: human
[2] = Proteolytic stability assessed as proteinase K (unknown origin)-mediated compound degradation in presence of reduced and alkylated cysteines measured after 10 mins by LC-MS analysis; format: ADME
[3] = tested on: Proteinase K (Engyodontium album); assay: Inhibition of proteinase K (Engyodontium album)
[4] = tested on: Escherichia coli; assay: Induction of BasS protein expression in Escherichia coli assessed as fold increase at 5 microg/ml; format: functional; settings: dose 5.0 µg/ml

CC[C@H](C)[C@@H]1NC(=O)[C@H](Cc2ccccc2)NC(=O)[C@H](Cc2ccccc2)NC(=O)[C@H](CCCNC(=N)N)NC(=O)[C@H](CCCNC(=N)N)NC(=O)[C@H](CCCCN)NC(=O)[C@H](CCCCN)NC(=O)[C@H](CC(=O)O)NC(=O)[C@H](C(C)C)NC(=O)[C@H](CO)NC(=O)[C@H](CCCCN)NC(=O)[C@@H]2CSSC[C@@H](C(=O)N[C@@H](CC(N)=O)C(=O)O)NC(=O)[C@@H]3CSSC[C@H](N)C(=O)NCC(=O)N[C@@H](CSSC[C@H](NC(=O)[C@H]([C@@H](C)O)NC(=O)[C@@H]4CCCN4C1=O)C(=O)N[C@@H](CC(C)C)C(=O)N[C@@H](CCCNC(=N)N)C(=O)N[C@@H](CO)C(=O)N3)C(=O)N[C@@H](Cc1ccc(O)cc1)C(=O)N2 (H-CGCYCKSVDKKRRFFIPTCLRSCCN-OH; disulfide 1-23, 3-19, 5-24)
Stability [1]: Stable
Stability [2]: Unstable
inhibition [3]: inactive

CC[C@H](C)[C@H](NC(=O)[C@H](Cc1ccccc1)NC(=O)[C@H](Cc1ccccc1)NC(=O)[C@H](CCCNC(=N)N)NC(=O)[C@H](CCCNC(=N)N)NC(=O)[C@H](CCCCN)NC(=O)[C@H](CCCCN)NC(=O)[C@H](CC(=O)O)NC(=O)[C@@H](NC(=O)[C@H](CO)NC(=O)[C@H](CCCCN)NC(=O)[C@H](CS)NC(=O)[C@H](Cc1ccc(O)cc1)NC(=O)[C@H](CS)NC(=O)CNC(=O)[C@@H](N)CS)C(C)C)C(=O)N1CCC[C@H]1C(=O)N[C@H](C(=O)N[C@@H](CS)C(=O)N[C@@H](CC(C)C)C(=O)N[C@@H](CCCNC(=N)N)C(=O)N[C@@H](CO)C(=O)N[C@@H](CS)C(=O)N[C@@H](CS)C(=O)N[C@@H](CC(N)=O)C(=O)O)[C@@H](C)O (H-CGCYCKSVDKKRRFFIPTCLRSCCN-OH)
fold change (FC) [4]: 83.8
